Source: ChEMBL document CHEMBL1134688, “Synthesis, biological evaluation, and pharmacophore generation of new pyridazinone derivatives with affinity toward alpha(1)- and alpha(2)-adrenoceptors” (J Med Chem, 2001)

Tests used:
[1] = molecular target: T1, Adrenergic receptor alpha-1 (Rattus norvegicus, UniProt P15823+P23944+P43140); assay: Alpha-1-adrenergic receptor binding affinity of the compound, value taken from literature; assay type: protein assay
T1 sequence (P15823 whole entry): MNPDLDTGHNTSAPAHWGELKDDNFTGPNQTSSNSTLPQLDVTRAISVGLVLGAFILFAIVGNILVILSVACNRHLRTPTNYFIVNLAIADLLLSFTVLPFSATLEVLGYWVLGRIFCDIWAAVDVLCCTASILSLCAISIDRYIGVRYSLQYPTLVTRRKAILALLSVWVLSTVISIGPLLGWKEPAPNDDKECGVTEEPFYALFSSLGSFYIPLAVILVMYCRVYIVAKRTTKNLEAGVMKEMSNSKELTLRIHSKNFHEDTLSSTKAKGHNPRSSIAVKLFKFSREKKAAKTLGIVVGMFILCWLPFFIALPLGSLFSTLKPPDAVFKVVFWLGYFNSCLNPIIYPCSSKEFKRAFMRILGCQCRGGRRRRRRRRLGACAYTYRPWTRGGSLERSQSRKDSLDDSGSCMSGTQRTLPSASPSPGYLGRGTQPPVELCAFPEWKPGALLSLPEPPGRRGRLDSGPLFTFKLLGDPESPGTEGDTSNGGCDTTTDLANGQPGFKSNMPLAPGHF
T1 sequence (P23944 whole entry): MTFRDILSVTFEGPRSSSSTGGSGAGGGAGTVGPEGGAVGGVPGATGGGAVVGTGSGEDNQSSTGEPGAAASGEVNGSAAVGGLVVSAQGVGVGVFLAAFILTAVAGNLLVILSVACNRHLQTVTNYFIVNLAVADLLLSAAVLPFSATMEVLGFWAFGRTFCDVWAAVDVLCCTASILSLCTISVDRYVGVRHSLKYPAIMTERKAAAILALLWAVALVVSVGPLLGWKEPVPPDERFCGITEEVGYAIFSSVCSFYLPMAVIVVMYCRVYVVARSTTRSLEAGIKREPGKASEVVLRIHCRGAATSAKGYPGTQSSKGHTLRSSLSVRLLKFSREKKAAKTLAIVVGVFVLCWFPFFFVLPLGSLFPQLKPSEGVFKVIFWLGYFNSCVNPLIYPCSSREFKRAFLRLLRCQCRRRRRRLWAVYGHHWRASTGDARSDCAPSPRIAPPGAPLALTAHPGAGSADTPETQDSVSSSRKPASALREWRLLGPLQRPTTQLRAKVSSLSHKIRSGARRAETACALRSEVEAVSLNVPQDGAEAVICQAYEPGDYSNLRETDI
T1 sequence (P43140 whole entry): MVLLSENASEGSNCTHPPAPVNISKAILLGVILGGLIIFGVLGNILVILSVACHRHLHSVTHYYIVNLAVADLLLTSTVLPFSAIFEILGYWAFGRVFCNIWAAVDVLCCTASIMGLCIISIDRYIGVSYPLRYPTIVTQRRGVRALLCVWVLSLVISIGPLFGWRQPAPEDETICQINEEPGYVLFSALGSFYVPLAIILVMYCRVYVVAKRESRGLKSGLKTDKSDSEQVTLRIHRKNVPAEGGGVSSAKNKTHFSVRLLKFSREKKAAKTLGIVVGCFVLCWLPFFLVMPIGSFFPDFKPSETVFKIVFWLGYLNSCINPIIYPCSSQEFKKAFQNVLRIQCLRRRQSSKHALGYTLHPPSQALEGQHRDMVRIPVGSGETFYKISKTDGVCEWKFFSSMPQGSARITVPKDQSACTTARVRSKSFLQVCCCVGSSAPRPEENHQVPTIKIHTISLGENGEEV

[2] = molecular target: T1, Adrenergic receptor alpha-1; assay: Alpha-1 adrenergic receptor binding affinity of the compound, value taken from literature; assay type: protein assay
[3] = molecular target: T1, Adrenergic receptor alpha-1; assay: Binding affinity towards alpha-1 adrenergic receptor in rat cortex membrane using [3H]-prazosin radioligand; assay type: cell membranes
[4] = molecular target: Adrenergic receptor alpha-2 (Rattus norvegicus) (UniProt P22086+P19328+P22909); assay: Ratio of binding affinity towards Alpha-2 and alpha-1 adrenergic receptor; assay type: protein assay
[5] = molecular target: T2, Adrenergic receptor alpha-2 (Rattus norvegicus, UniProt P22086+P19328+P22909); assay: Binding affinity towards alpha-2 adrenergic receptor in rat cortex membrane using [3H]rauwolscine radioligand; assay type: cell membranes
T2 sequence (P22086 whole entry): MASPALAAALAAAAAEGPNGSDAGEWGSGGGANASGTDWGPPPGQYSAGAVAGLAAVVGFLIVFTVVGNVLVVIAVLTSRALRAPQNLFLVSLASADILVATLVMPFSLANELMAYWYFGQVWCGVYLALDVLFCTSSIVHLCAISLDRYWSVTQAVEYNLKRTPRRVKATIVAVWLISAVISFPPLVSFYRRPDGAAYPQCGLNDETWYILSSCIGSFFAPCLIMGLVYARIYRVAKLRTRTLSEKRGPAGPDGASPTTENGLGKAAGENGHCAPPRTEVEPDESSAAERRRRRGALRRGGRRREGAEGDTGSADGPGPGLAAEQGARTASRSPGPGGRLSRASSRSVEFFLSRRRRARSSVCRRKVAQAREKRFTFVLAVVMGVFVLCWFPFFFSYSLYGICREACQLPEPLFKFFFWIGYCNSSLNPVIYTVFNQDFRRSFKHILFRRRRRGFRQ
T2 sequence (P19328 whole entry): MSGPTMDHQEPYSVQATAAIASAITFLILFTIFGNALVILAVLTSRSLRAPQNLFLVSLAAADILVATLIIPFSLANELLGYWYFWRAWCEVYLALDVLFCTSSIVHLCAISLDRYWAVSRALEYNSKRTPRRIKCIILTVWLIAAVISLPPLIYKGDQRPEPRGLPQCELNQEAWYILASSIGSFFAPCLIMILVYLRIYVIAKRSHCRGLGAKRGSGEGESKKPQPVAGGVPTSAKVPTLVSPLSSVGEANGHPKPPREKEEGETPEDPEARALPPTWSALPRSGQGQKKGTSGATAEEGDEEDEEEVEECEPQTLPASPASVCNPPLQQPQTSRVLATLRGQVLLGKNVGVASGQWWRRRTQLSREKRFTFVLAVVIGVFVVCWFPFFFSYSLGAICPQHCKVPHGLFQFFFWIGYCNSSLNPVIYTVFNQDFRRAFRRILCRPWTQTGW
T2 sequence (P22909 whole entry): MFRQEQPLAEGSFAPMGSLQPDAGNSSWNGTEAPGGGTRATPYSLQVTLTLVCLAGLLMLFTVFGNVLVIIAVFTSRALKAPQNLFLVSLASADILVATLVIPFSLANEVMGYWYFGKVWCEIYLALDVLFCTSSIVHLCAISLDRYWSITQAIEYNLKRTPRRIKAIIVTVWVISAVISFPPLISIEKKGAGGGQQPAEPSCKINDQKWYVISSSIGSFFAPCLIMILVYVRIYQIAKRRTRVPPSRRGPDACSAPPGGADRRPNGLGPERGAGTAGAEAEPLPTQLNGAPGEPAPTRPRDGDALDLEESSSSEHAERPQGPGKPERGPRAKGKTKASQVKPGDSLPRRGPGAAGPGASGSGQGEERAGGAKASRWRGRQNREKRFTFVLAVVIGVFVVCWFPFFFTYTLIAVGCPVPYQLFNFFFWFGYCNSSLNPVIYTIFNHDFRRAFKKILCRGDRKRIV

Row | Ki [1] [nM] | Ki [2] [nM] | Ki [3] [nM] | Ratio [4] | Ki [5] [nM] | Compound
1 | 0.21 |  |  |  |  | COc1ccccc1N1CCN(CCn2c(=O)[nH]c3c([nH]c4ccccc43)c2=O)CC1
2 |  | 258 |  |  |  | CCC(=O)NCCN1CCN(c2ccccc2OC)CC1
3 |  |  | 8.4 | 16.5 | 138.8 | COc1ccccc1OCCN1CCN(c2ccc(=O)n(CCCCCCN3CCN(c4ccccc4Cl)CC3)n2)CC1
4 |  |  | 4.2 | 6 | 25.2 | COc1ccccc1OCCN1CCN(c2cnn(CCCCCCN3CCN(c4ccccc4Cl)CC3)c(=O)c2Cl)CC1
5 |  |  | 14.5 | 17 | 245 | COc1ccccc1OCCN1CCN(c2cnn(CCCN3CCN(c4ccccc4OC)CC3)c(=O)c2Cl)CC1
6 |  |  | 13.3 | 7.9 | 105 | O=C(c1ccco1)N1CCN(c2ccc(=O)n(CCCCCN3CCN(c4ccccc4Cl)CC3)n2)CC1
7 |  |  | 5.6 | 4.2 | 23.5 | O=C(c1ccco1)N1CCN(c2ccc(=O)n(CCCCCCCN3CCN(c4ccccc4Cl)CC3)n2)CC1
8 |  |  | 5.9 | 4 | 23.7 | O=C(c1ccco1)N1CCN(c2ccc(=O)n(CCCCCCN3CCN(c4ccccc4Cl)CC3)n2)CC1
9 |  |  | 7.9 | 3 | 24 | O=C(c1ccco1)N1CCN(c2ccc(=O)n(CCCCN3CCN(c4ccccc4Cl)CC3)n2)CC1
10 |  |  | 3.5 | 24.3 | 85 | O=C(c1ccco1)N1CCN(c2cnn(CCCN3CCN(c4ccccc4Cl)CC3)c(=O)c2Cl)CC1
11 |  |  | 19 | 14.7 | 280 | O=C(c1ccco1)N1CCN(c2cnn(CCCCN3CCN(c4ccccc4Cl)CC3)c(=O)c2Cl)CC1
12 |  | 17.5 |  |  |  | COc1ccccc1N1CCN(CCNC(=O)C23CC4CC(CC(C4)C2)C3)CC1
13 |  |  | 16 | 25.5 | 409 | COc1ccccc1OCCN1CCN(c2cnn(CCN3CCN(c4ccccc4OC)CC3)c(=O)c2Cl)CC1
14 |  |  | 38 | 33.2 | 1261 | COc1ccccc1OCCN1CCN(c2ccc(=O)n(CCN3CCN(c4ccccc4OC)CC3)n2)CC1
15 |  |  | 33.5 | 26 | 870 | COc1ccccc1N1CCN(CCCCn2ncc(N3CCN(C(=O)c4ccco4)CC3)c(Cl)c2=O)CC1
16 |  |  | 64.5 | 9.8 | 631 | COc1ccccc1N1CCN(CCCn2nc(N3CCN(C(=O)c4ccco4)CC3)ccc2=O)CC1
17 |  |  | 2.3 | 20 | 45.8 | COc1ccccc1OCCN1CCN(c2ccc(=O)n(CCCCCCCN3CCN(c4ccccc4OC)CC3)n2)CC1
18 |  |  | 27.8 | 7.8 | 219 | COc1ccccc1OCCN1CCN(c2cnn(CCCN3CCN(c4ccccc4Cl)CC3)c(=O)c2Cl)CC1
19 |  |  | 4.5 | 6.4 | 29 | COc1ccccc1OCCN1CCN(c2cnn(CCCCCN3CCN(c4ccccc4Cl)CC3)c(=O)c2Cl)CC1
20 |  |  | 3.9 | 3.8 | 15 | COc1ccccc1OCCN1CCN(c2cnn(CCCCCN3CCN(c4ccccc4OC)CC3)c(=O)c2Cl)CC1
21 |  |  | 20.4 | 33.3 | 680 | COc1ccccc1N1CCN(CCCn2ncc(N3CCN(C(=O)c4ccco4)CC3)c(Cl)c2=O)CC1
22 |  |  | 34 | 1.5 | 52.6 | O=C(c1ccco1)N1CCN(c2ccc(=O)n(CCN3CCN(c4ccccc4Cl)CC3)n2)CC1
23 |  | 374 |  |  |  | O=C1CCc2ccccc2N1CCCCN1CCN(c2ncccn2)CC1
24 |  |  | 180 | 4.4 | 790 | COc1ccccc1N1CCN(CCCCn2nc(N3CCN(C(=O)c4ccco4)CC3)ccc2=O)CC1
25 |  | 11.9 |  |  |  | COc1ccccc1N1CCN(CCCCN2C(=O)CCC2=O)CC1
26 |  | 0.34 |  |  |  | COc1ccccc1N1CCN(CCCCN2C(=O)CCc3ccccc32)CC1
27 |  |  | 1.9 | 12.3 | 23.3 | COc1ccccc1N1CCN(CCCCCn2ncc(N3CCN(C(=O)c4ccco4)CC3)c(Cl)c2=O)CC1
28 |  |  | 6.8 | 46.5 | 316 | COc1ccccc1OCCN1CCN(c2ccc(=O)n(CCCN3CCN(c4ccccc4Cl)CC3)n2)CC1
29 |  |  | 0.8 | 86.7 | 69.4 | COc1ccccc1OCCN1CCN(c2ccc(=O)n(CCCCN3CCN(c4ccccc4Cl)CC3)n2)CC1
